Measurements published in US9657002B2, “Oxindole derivatives carrying an oxetane substituent and use thereof for treating vassopressin-related diseases” (AbbVie Deutschland GmbH & Co. KG, priority 2013, dated 2017).
Like-named read-outs stand apart in the source and are kept apart here.

Columns and labels:
[1] = target: T1, human vasopressin V1b receptor (Homo sapiens, UniProt P47901); test: biochemical
T1 sequence (P47901 1-424): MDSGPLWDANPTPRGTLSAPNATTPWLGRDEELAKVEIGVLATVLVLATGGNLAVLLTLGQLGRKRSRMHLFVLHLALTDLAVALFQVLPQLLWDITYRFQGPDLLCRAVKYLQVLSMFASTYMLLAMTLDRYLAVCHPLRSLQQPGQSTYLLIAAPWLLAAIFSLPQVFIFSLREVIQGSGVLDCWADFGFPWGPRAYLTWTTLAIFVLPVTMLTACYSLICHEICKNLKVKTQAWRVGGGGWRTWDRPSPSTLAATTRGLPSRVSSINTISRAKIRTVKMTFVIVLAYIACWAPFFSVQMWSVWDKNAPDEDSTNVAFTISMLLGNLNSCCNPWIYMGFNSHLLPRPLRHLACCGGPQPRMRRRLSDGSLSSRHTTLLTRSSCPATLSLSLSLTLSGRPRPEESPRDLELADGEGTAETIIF

[2] = test system: Wistar rats; test: Vogel conflict test; assay type: in vivo; settings: i.p. 30 minutes before the test, at 10 and 30 mg/kg
Excerpt: (§1) Male NMRI mice (Janvier, Le Genest-St-Isle, France) were used for stress-induced Adrenocorticotropic hormone (ACTH) release. Adult male Wistar rats (175-220 g body weight upon arrival) were obtained from Harlan Inc. (Indianapolis, Ind.). For the forced swim test, male Sprague Dawley rats (100-120 g body weight upon arrival) were obtained from Janvier (Le Genest-St-Isle, France). The animals were acclimatized to the animal facilities for at least one week before the start of the experimental procedures. Animals were maintained in a controlled environment on a 12:12 hour light dark schedule (lights on 06:00 h for rats in Vogel conflict test and 05:30 h for rats in forced swim test). Experimental procedures took place during the illuminated phase of the light/dark cycle. Food and water were available ad libitum, except for the Vogel conflict test, where the animals were submitted to a water deprivation regimen as described below. […]
The Vogel conflict test is a well-validated animal model to detect compounds with anxiolytic properties. […] The number of punished responses was automatically recorded for each rat during 5 min of testing. […]

[3] = test system: Sprague Dawley rats; test: Forced swim test; assay type: in vivo; settings: i.p. 24, 4 and 0.5 hours before testing, at 10 mg/kg
Excerpt: as §1
The forced swim test consisted of a pre-test and a test swim. […] Test swims were recorded on videotape and subsequently used for analysis. […]

[4] = target: human vasopressin V1a receptor (Homo sapiens, UniProt P37288); test: Vasopressin V1a receptor binding assay; settings: selectivity quotient, human V1a vs human V1b
[5] = test system: stress-induced ACTH release; test: Stress-induced ACTH release; assay type: in vivo, NMRI mice; settings: mice, restraint stress, i.p. 1 hour before; at 10 and 30 mg/kg
Excerpt: as §1
The blood was collected in 1.3 mL blood sampling vials containing potassium EDTA (Sarstedt, Nümbrecht, Germany) and […] aprotinin solution (saline solution, 3-7 TIU [trypsin inhibitor units]/mg protein; Sigma-Aldrich, Germany). […] ACTH concentrations were measured by an ELISA (enzyme-linked immuno sorbent assay) for ACTH (IBL Hamburg, Germany). […]

[6] = target: T1, human vasopressin V1b receptor; settings: read-out: Ki(h-V1b)*, CHO-K1 membranes, 3H-AVP displacement

Sequence of human vasopressin V1a receptor (P37288 whole entry): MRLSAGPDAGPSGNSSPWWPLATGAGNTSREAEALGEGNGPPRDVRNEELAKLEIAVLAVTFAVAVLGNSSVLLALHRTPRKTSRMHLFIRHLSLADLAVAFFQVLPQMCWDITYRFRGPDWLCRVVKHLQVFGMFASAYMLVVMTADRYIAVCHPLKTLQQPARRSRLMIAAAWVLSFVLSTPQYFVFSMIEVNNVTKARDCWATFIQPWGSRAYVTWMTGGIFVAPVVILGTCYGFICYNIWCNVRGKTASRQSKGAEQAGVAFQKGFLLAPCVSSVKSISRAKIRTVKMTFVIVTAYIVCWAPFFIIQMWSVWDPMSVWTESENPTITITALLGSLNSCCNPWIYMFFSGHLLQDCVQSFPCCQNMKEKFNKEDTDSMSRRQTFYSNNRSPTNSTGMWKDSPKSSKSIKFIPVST

Ki [1] [nM]	SMILES	punished responses in Vogel conflict (anxiolytic-like efficacy) [2]	latency to immobility in the forced swim test (antidepressant-like effect) [3]	Ki(h-V1a)/Ki(h-V1b) [4]	stress-induced ACTH release [5]	Ki [6] [nM]
10 to 100	COc1ccc(S(=O)(=O)N2C(=O)[C@@](NC(=O)N3CCN(C4CCN(C5COC5)CC4)CC3)(c3cccnc3OC)c3cc(C#N)ccc32)c(OC)c1 [Example 21, N-[(3S)-5-cyano-1-(2,4-dimethoxyphenyl)sulfonyl-3-(2-methoxy-3-pyridyl)-2-oxo-indolin-3-yl]-4-[1-(oxetan-3-yl)-4-piperidyl]piperazine-1-carboxamide]	significant effect	significant antidepressant-like effect	+++ (>75)	significantly blocked the stress response	–
–	COc1ccc(S(=O)(=O)N2C(=O)[C@@](NC(=O)N3CCN(C4CCN(C5(C)COC5)CC4)CC3)(c3cccnc3OC)c3cc(C#N)ccc32)c(OC)c1.O=C(O)C(F)(F)F.O=C(O)C(F)(F)F [Example 52, (S)—N-(5-cyano-1-((2,4-dimethoxyphenyl)sulfonyl)-3-(2-methoxypyridin-3-yl)-2-oxoindolin-3-yl)-4-(1-(3-methyloxetan-3-yl)piperidin-4-yl)piperazine-1-carboxamide, 2 trifluoroacetic acid]	–	–	+++ (>75)	–	1 to 10
